Values quoted from earlier work in patent US8211842B2, “Preventive and/or curative agent for cleaning materials that are brought into contact with water” (priority 2006, dated 2012).

Columns and labels:
Conditions in all cases: standard AFNOR NF T 72-151
[1] = tested on: Escherichia coli 54127
[2] = tested on: Pseudomonas aeruginosa A22
[3] = tested on: Staphylococcus aureus 53164
[4] = tested on: Streptococcus faecalis 5855
[5] = tested on: Mycobactenum smegmatis 7326

Measured: dose effective as a bactericide

CCCCCCCCCC[N+](C)(C)CCCCCCCCCC.[Cl-] [didecyl dimethylammonium chloride]
50 ppm: all assays above
